Laboratory results taken from the NIST ThermoML archive (doi:10.1021/je7003116).
Numbers after ± are expanded uncertainties.

Assay: mn = molality of the nth substance listed, in mol/kg
Conditions: for electrical conductivity / mass density: 101 kPa, Liquid; for electrical conductivity: Alternating current cell with electrodes

CC(=O)CC(c1ccccc1)c1c([O-])c2ccccc2oc1=O.[Na+] (stereo not given) [warfarin sodium] + O
Conditions	electrical conductivity [S/m]	mass density [kg/m3]	surface tension liquid-gas [mN/m]
293.15 K, m1 = 0.005	0.0273 ± 0.001	–	–
293.15 K, m1 = 0.00573	–	998.701 ± 0.66	–
293.15 K, m1 = 0.006	0.0326 ± 0.001	–	66.46 ± 3.4
293.15 K, m1 = 0.00689	–	998.801 ± 0.66	–
293.15 K, m1 = 0.007	0.0379 ± 0.001	–	65.61 ± 3.4
293.15 K, m1 = 0.00749	–	998.852 ± 0.66	–
293.15 K, m1 = 0.008	0.0434 ± 0.001	–	64.92 ± 3.3
293.15 K, m1 = 0.00851	–	998.94 ± 0.66	–
293.15 K, m1 = 0.009	0.0485 ± 0.001	–	64.06 ± 3.3
293.15 K, m1 = 0.00983	–	999.054 ± 0.66	–
293.15 K, m1 = 0.01	0.0535 ± 0.001	–	62.77 ± 3.2
293.15 K, m1 = 0.018	–	–	58.07 ± 3
293.15 K, m1 = 0.02	0.1042 ± 0.001	–	–
293.15 K, m1 = 0.02401	–	1000.27 ± 0.65	–
293.15 K, m1 = 0.027	–	–	52.97 ± 2.8
293.15 K, m1 = 0.04	0.198 ± 0.006	–	50.48 ± 2.7
293.15 K, m1 = 0.0466	–	1002.19 ± 0.67	–
293.15 K, m1 = 0.054	–	–	48.47 ± 2.6
293.15 K, m1 = 0.06	0.283 ± 0.006	–	–
293.15 K, m1 = 0.067	–	–	45.58 ± 2.4
293.15 K, m1 = 0.0718	–	1004.26 ± 0.69	–
293.15 K, m1 = 0.078	–	–	43.98 ± 2.4
293.15 K, m1 = 0.08	0.381 ± 0.006	–	–
293.15 K, m1 = 0.089	–	–	41.68 ± 2.2
293.15 K, m1 = 0.0984	–	1006.41 ± 0.71	–
293.15 K, m1 = 0.1	0.464 ± 0.006	–	–
293.15 K, m1 = 0.107	–	–	41.58 ± 2.2
293.15 K, m1 = 0.125	0.56 ± 0.006	–	40.94 ± 2.2
293.15 K, m1 = 0.1251	–	1008.51 ± 0.73	–
293.15 K, m1 = 0.15	0.651 ± 0.006	1010.43 ± 0.76	40.38 ± 2.2
293.15 K, m1 = 0.175	0.737 ± 0.006	–	40.23 ± 2.2
293.15 K, m1 = 0.176	–	1012.59 ± 0.78	–
293.15 K, m1 = 0.2	0.822 ± 0.006	1014.56 ± 0.81	40.72 ± 2.2
293.15 K, m1 = 0.225	0.901 ± 0.006	1016.71 ± 0.83	40.23 ± 2.2
293.15 K, m1 = 0.25	0.974 ± 0.006	1018.89 ± 0.86	39.64 ± 2.1
293.15 K, m1 = 0.275	1.041 ± 0.006	1020.99 ± 0.88	–
293.15 K, m1 = 0.279	–	–	40.09 ± 2.2
293.15 K, m1 = 0.3	1.102 ± 0.006	1023.15 ± 0.91	–
293.15 K, m1 = 0.325	–	1025.24 ± 0.94	–
293.15 K, m1 = 0.35	–	1027.33 ± 0.96	–
293.15 K, m1 = 0.375	–	1029.29 ± 0.99	–
293.15 K, m1 = 0.401	–	1031.33 ± 1	–
303.15 K, m1 = 0.005	0.0288 ± 0.001	–	–
303.15 K, m1 = 0.00579	–	996.134 ± 0.76	–
303.15 K, m1 = 0.006	0.0344 ± 0.001	–	–
303.15 K, m1 = 0.00695	–	996.231 ± 0.68	–
303.15 K, m1 = 0.007	0.04 ± 0.001	–	–
303.15 K, m1 = 0.00754	–	996.281 ± 0.68	–
303.15 K, m1 = 0.008	0.0455 ± 0.001	–	–
303.15 K, m1 = 0.00857	–	996.367 ± 0.68	–
303.15 K, m1 = 0.009	0.051 ± 0.001	–	–
303.15 K, m1 = 0.00987	–	996.476 ± 0.69	–
303.15 K, m1 = 0.01	0.0565 ± 0.001	–	–
303.15 K, m1 = 0.02	0.1087 ± 0.001	–	–
303.15 K, m1 = 0.024	–	997.658 ± 0.67	–
303.15 K, m1 = 0.04	0.209 ± 0.006	–	–
303.15 K, m1 = 0.0465	–	999.515 ± 0.66	–
303.15 K, m1 = 0.06	0.302 ± 0.006	–	–
303.15 K, m1 = 0.0715	–	1001.52 ± 0.67	–
303.15 K, m1 = 0.08	0.39 ± 0.006	–	–
303.15 K, m1 = 0.0983	–	1003.59 ± 0.69	–
303.15 K, m1 = 0.1	0.473 ± 0.006	–	–
303.15 K, m1 = 0.125	0.575 ± 0.006	1005.62 ± 0.71	–
303.15 K, m1 = 0.15	0.67 ± 0.006	1007.48 ± 0.73	–
303.15 K, m1 = 0.175	0.761 ± 0.006	–	–
303.15 K, m1 = 0.176	–	1009.57 ± 0.76	–
303.15 K, m1 = 0.2	0.847 ± 0.006	1011.47 ± 0.78	–
303.15 K, m1 = 0.225	0.928 ± 0.006	1013.56 ± 0.8	–
303.15 K, m1 = 0.25	1.008 ± 0.006	1015.65 ± 0.83	–
303.15 K, m1 = 0.275	1.081 ± 0.006	1017.69 ± 0.85	–
303.15 K, m1 = 0.3	1.154 ± 0.006	1019.77 ± 0.88	–
303.15 K, m1 = 0.325	–	1021.79 ± 0.91	–
303.15 K, m1 = 0.35	–	1023.81 ± 0.93	–
303.15 K, m1 = 0.375	–	1025.71 ± 0.96	–
303.15 K, m1 = 0.3999	–	1027.67 ± 0.99	–
313.15 K, m1 = 0.005	0.0299 ± 0.001	–	–
313.15 K, m1 = 0.00576	–	992.687 ± 0.76	–
313.15 K, m1 = 0.006	0.0358 ± 0.001	–	–
313.15 K, m1 = 0.00695	–	992.784 ± 0.71	–
313.15 K, m1 = 0.007	0.0416 ± 0.001	–	–
313.15 K, m1 = 0.00759	–	992.836 ± 0.7	–
313.15 K, m1 = 0.008	0.0474 ± 0.001	–	–
313.15 K, m1 = 0.00857	–	992.916 ± 0.71	–
313.15 K, m1 = 0.009	0.0532 ± 0.001	–	–
313.15 K, m1 = 0.00988	–	993.022 ± 0.71	–
313.15 K, m1 = 0.01	0.059 ± 0.001	–	–
313.15 K, m1 = 0.02	0.1131 ± 0.001	–	–
313.15 K, m1 = 0.0241	–	994.171 ± 0.7	–
313.15 K, m1 = 0.04	0.216 ± 0.006	–	–
313.15 K, m1 = 0.047	–	995.977 ± 0.69	–
313.15 K, m1 = 0.06	0.314 ± 0.006	–	–
313.15 K, m1 = 0.0719	–	997.928 ± 0.67	–
313.15 K, m1 = 0.08	0.401 ± 0.006	–	–
313.15 K, m1 = 0.0984	–	999.945 ± 0.66	–
313.15 K, m1 = 0.1	0.489 ± 0.006	–	–
313.15 K, m1 = 0.125	0.595 ± 0.006	1001.91 ± 0.68	–
313.15 K, m1 = 0.15	0.694 ± 0.006	1003.72 ± 0.7	–
313.15 K, m1 = 0.175	0.79 ± 0.006	–	–
313.15 K, m1 = 0.176	–	1005.74 ± 0.72	–
313.15 K, m1 = 0.2	0.88 ± 0.006	1007.59 ± 0.75	–
313.15 K, m1 = 0.225	0.963 ± 0.006	1009.61 ± 0.77	–
313.15 K, m1 = 0.25	1.046 ± 0.006	1011.64 ± 0.8	–
313.15 K, m1 = 0.275	1.13 ± 0.01	1013.62 ± 0.82	–
313.15 K, m1 = 0.3	1.206 ± 0.006	1015.64 ± 0.85	–
313.15 K, m1 = 0.325	–	1017.6 ± 0.87	–
313.15 K, m1 = 0.35	–	1019.56 ± 0.9	–
313.15 K, m1 = 0.375	–	1021.4 ± 0.93	–
313.15 K, m1 = 0.4009	–	1023.31 ± 0.95	–
323.15 K, m1 = 0.005	0.0327 ± 0.001	–	–
323.15 K, m1 = 0.00585	–	988.498 ± 0.74	–
323.15 K, m1 = 0.006	0.039 ± 0.001	–	–
323.15 K, m1 = 0.007	0.0454 ± 0.001	–	–
323.15 K, m1 = 0.00702	–	988.591 ± 0.74	–
323.15 K, m1 = 0.00767	–	988.642 ± 0.74	–
323.15 K, m1 = 0.008	0.0516 ± 0.001	–	–
323.15 K, m1 = 0.0087	–	988.722 ± 0.74	–
323.15 K, m1 = 0.009	0.0576 ± 0.001	–	–
323.15 K, m1 = 0.01	0.0638 ± 0.001	–	–
323.15 K, m1 = 0.01001	–	988.824 ± 0.74	–
323.15 K, m1 = 0.02	0.1211 ± 0.001	–	–
323.15 K, m1 = 0.0243	–	989.947 ± 0.73	–
323.15 K, m1 = 0.04	0.233 ± 0.006	–	–
323.15 K, m1 = 0.0469	–	991.708 ± 0.72	–
323.15 K, m1 = 0.06	0.338 ± 0.006	–	–
323.15 K, m1 = 0.072	–	993.609 ± 0.71	–
323.15 K, m1 = 0.08	0.429 ± 0.006	–	–
323.15 K, m1 = 0.0985	–	995.582 ± 0.7	–
323.15 K, m1 = 0.1	0.523 ± 0.006	–	–
323.15 K, m1 = 0.125	0.634 ± 0.006	997.493 ± 0.69	–
323.15 K, m1 = 0.15	0.734 ± 0.006	999.248 ± 0.68	–
323.15 K, m1 = 0.175	0.83 ± 0.006	–	–
323.15 K, m1 = 0.1765	–	1001.22 ± 0.69	–
323.15 K, m1 = 0.2	0.921 ± 0.006	1003.02 ± 0.71	–
323.15 K, m1 = 0.225	1.008 ± 0.006	1004.99 ± 0.73	–
323.15 K, m1 = 0.25	1.091 ± 0.006	1006.96 ± 0.76	–
323.15 K, m1 = 0.275	1.171 ± 0.006	1008.89 ± 0.78	–
323.15 K, m1 = 0.3	1.245 ± 0.006	1010.86 ± 0.81	–
323.15 K, m1 = 0.325	–	1012.77 ± 0.83	–
323.15 K, m1 = 0.35	–	1014.68 ± 0.86	–
323.15 K, m1 = 0.375	–	1016.47 ± 0.88	–
323.15 K, m1 = 0.4021	–	1018.32 ± 0.91	–
